The values that follow come from paper PMC3201940, “A Robust and Rapid Method of Producing Soluble, Stable, and Functional G-Protein Coupled Receptors” (PLoS ONE, 2011).

This assay deals with T1, hVN1R1 (Homo sapiens, UniProt Q9GZP7).
T1 construct: gene VN1R1
T1 sequence (Q9GZP7 1-353): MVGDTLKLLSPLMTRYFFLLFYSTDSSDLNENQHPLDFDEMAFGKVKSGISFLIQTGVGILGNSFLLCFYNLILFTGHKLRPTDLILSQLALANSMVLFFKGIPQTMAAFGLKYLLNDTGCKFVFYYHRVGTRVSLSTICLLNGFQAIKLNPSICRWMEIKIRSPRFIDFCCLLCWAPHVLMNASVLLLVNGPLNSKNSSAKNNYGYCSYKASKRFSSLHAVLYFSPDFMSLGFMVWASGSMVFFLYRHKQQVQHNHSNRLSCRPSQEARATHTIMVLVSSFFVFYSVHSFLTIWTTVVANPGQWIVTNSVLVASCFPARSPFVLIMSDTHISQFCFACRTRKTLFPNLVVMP
Kind of assay: label-free microscale thermophoresis (tryptophan fluorescence), purified receptor, heat-denatured control. The format is binding.

As for `C=C(C)C1CC=C(C)C(O)C1` (mixture of isomers) [carveol], the EC50 turned out to be 3.5 ± 0.7 µM.
